Laboratory results published in patent US6110907A, “Synthesis of platinum complexes and uses thereof” (Dalian Institute of Chemical Physics, Chinese Academy of …, priority 1998, dated 2000).
pIC50: −log10 of the molar value. Where two headings read alike, the source gives them in different places.

Legend:
kidney = experiment: 5-Day Parenteral Acute Toxicity Trial, kidney histopathology; type: in vivo, ICR mice; conditions: 1/12 LD10/day for 5 days, i.p., per animal
Procedure: (§1) Conditions: Temperature: 22° C.±3° C.; Relative humidity: 30-70 T; Light: 12:12. Animals were housed in twos or threes depending on group numbers.
(§2) Histopathology of liver and kidney were examined for each animal.

[1] = cited from earlier work
[2] = background statement; cited from earlier work
liver = experiment: 5-Day Parenteral Acute Toxicity Trial, liver histopathology; type: in vivo, ICR mice; conditions: 1/12 LD10/day for 5 days, i.p., per animal
Procedure: as §1, §2

HT29 = experiment: In vitro antitumor activity, MTT assay, HT-29; type: cell-based, human; conditions: HT29, 48 hours
Procedure: (§3) Drugs: Drugs to be tested were dissolved in complete medium at twice the highest concentration to be used, followed by filter (0.22 μm) sterilization. A series of log dilutions were made of each drug solution using complete medium and stored at r.t. until use.
(§4) Cells: L1210, H-522 (human lung), HT-29 (human colon), Hela, CC3 (human cervix) were obtained from the American Type Culture Collection (ATCC). CNE-1 and CNE-2 (human nasopharyngeal) were obtained from The Hong Kong Cancer Institute, The Chinese University of Hong Kong.
(§5) In vitro drug exposure: Trypsinised cells were adjusted to a concentration of 3×10^4 cells/ml in complete medium and for each drug to be tested, 0.1 ml of the cell suspension was added to each of 48 wells of a 96-well microculture plate. The plate was then incubated at standard conditions for 24 hours in order to allow the cells to attach to the bottom of the well. To each well of the control cultures, 0.1 ml of complete medium was added. […]
(§6) MTT assay: The MTT (tetrazolium) assay was used to determine the growth-inhibitory effects of different drugs. […] The amount of reduced MTT was determined by spectrophotometric means (540 nm).
(§7) Data analysis: The mean OD for all 48 control wells was determined. For each concentration of each drug, the mean OD of the 6 wells was determined and the "Percent of Control" values were determined and plotted. […]

CNE-2 = experiment: In vitro antitumor activity, MTT assay, CNE-2; type: cell-based, human; conditions: CNE-2, 48 hours
Procedure: as §3, §4, §5, §6, §7

H522 = experiment: In vitro antitumor activity, MTT assay, H522; type: cell-based, human; conditions: H522, 48 hours
Procedure: as §3, §4, §5, §6, §7

CC3 = experiment: In vitro antitumor activity, MTT assay, CC3; type: cell-based, human; conditions: CC3, 48 hours
Procedure: as §3, §4, §5, §6, §7

ICR mice [3] = experiment: In vivo toxicity, LD50 (second series); conditions: male, intraperitoneal
Procedure: Animals: ICR mice, male, 30 g, 10 animals per test/control group.
Dose: Test/control drug were dissolved in normal saline. Four doses, each increasing by 10-20% were injected intraperitoneally into mice. 10 mice were used for each dose point.

Hela = experiment: In vitro antitumor activity, MTT assay, Hela; type: cell-based, human; conditions: 48 hours
Procedure: as §3, §4, §5, §6, §7

L1210 = experiment: In vitro antitumor activity, MTT assay, L1210; type: cell-based, mouse; conditions: L1210, 48 hours
Procedure: as §3, §4, §5, §6, §7

ICR mice [4] = experiment: Toxicity testing, LD50 (Example 14); type: in vivo; conditions: in 0.9% NaCl, observed for 6 days
Procedure: The toxicity tests used ICR mice (30-40 g), each group containing 12-13 mice. […] The test and control compounds were dissolved in 0.9% NaCl to an appropriate concentration.

CNE-1 = experiment: In vitro antitumor activity, MTT assay, CNE-1; type: cell-based, human; conditions: CNE-1, 48 hours
Procedure: as §3, §4, §5, §6, §7

Compound | KIDNEY Normal (kidney; female) | KIDNEY Normal (kidney; male) | LD50 [2] | LIVER Normal (liver; female) | LIVER Normal (liver; male) | pIC50 (HT29) | pIC50 (CNE-2) | pIC50 (H522) | pIC50 (CC3) | pIC50 (Hela) | pIC50 (L1210) | pIC50 (CNE-1) | further results
C[C@@]12C(=O)OC(=O)[C@]1(C)[C@H]1CC[C@@H]2O1 [Cantharidin, cantharidin] | √ | √ | 1 mg/kg | √ | √ | – | – | – | – | – | – | – | side effects ([1]; background statement): nausea and vomiting, dysphagia, hematemesis, gross hematuria and dysuria; side effects ([1]; background statement, listed as cantharidin): severe side-effects such as nausea, vomiting and diarrhoea
N.N.O=C([O-])C1(C(=O)[O-])CCC1.[Pt+2] [Carboplatin, carboplatin] | √ | √ | – | √ | √ | 3.13 | 3.90 | 3.54 | 3.69 | 3.61 | 4.31 | 3.76 | Solubility in water (pH 6): 10000 µg/mL; Solubility (water): ~10000 µg/mL; side effects ([1]; in vivo): strongly irritates the gastrointestinal tract; LD50 (ICR mice [3]): 203.20 mg/kg; LD50 (ICR mice [4]): 190 mg/kg
N.N.[Cl][Pt][Cl] [Cisplatin, cisplatin] | – | – | – | – | – | 4.42 | 5.22 | 4.92 | 5.20 | 5.07 | 5.79 | 5.20 | –
O=C(O)C1C2CCC(O2)C1C(=O)O (centres unmarked) [corresponding dicarboxylic acid] | – | – | 14 mg/kg | – | – | – | – | – | – | – | – | – | –
O=C1OC(=O)C2C3CCC(O3)C12 (centres unmarked) [demethyl cantharidin] | – | – | 4 mg/kg | – | – | – | – | – | – | – | – | – | –
